Numbers after ± are expanded uncertainties.
Assay: mn = molality of the nth substance listed, in mol/kg
Settings: 101.3 kPa, Liquid; for speed of sound: Sing-around technique in a fixed-path interferometer; for mass density: Vibrating tube method

CCOC(=O)CC(=O)[O-].[K+] [potassium 3-ethoxy-3-oxopropanoate] + O
Settings	mass density [kg/m3]	speed of sound [m/s]
288.15 K, m1 = 0.0116	999.92 ± 2	1468.2 ± 2.2
288.15 K, m1 = 0.0175	1000.34 ± 2	1469 ± 2.2
288.15 K, m1 = 0.0352	1001.57 ± 2	1471.2 ± 2.2
288.15 K, m1 = 0.0453	1002.29 ± 2	1472.6 ± 2.2
288.15 K, m1 = 0.0579	1003.14 ± 2	1474.2 ± 2.2
288.15 K, m1 = 0.1204	1007.45 ± 2	1482.2 ± 2.2
288.15 K, m1 = 0.18	1011.47 ± 2	1489.7 ± 2.2
288.15 K, m1 = 0.2369	1015.22 ± 2	1496.6 ± 2.2
288.15 K, m1 = 0.3076	1019.83 ± 2	1505.1 ± 2.2
293.15 K, m1 = 0.0116	999.013 ± 2	1484.1 ± 2.2
293.15 K, m1 = 0.0175	999.423 ± 2	1484.9 ± 2.2
293.15 K, m1 = 0.0352	1000.64 ± 2	1487 ± 2.2
293.15 K, m1 = 0.0453	1001.35 ± 2	1488.3 ± 2.2
293.15 K, m1 = 0.0579	1002.19 ± 2	1489.8 ± 2.2
293.15 K, m1 = 0.1204	1006.44 ± 2	1497.2 ± 2.2
293.15 K, m1 = 0.18	1010.41 ± 2	1504.2 ± 2.2
293.15 K, m1 = 0.2369	1014.11 ± 2	1510.6 ± 2.2
293.15 K, m1 = 0.3076	1018.65 ± 2	1518.7 ± 2.2
298.15 K, m1 = 0.0116	997.84 ± 2	1498.2 ± 2.2
298.15 K, m1 = 0.0175	998.247 ± 2	1499 ± 2.2
298.15 K, m1 = 0.0352	999.442 ± 2	1500.9 ± 2.2
298.15 K, m1 = 0.0453	1000.15 ± 2	1502.1 ± 2.2
298.15 K, m1 = 0.0579	1000.98 ± 2	1503.5 ± 2.2
298.15 K, m1 = 0.1204	1005.18 ± 2	1510.4 ± 2.2
298.15 K, m1 = 0.18	1009.1 ± 2	1516.9 ± 2.2
298.15 K, m1 = 0.2369	1012.76 ± 2	1523 ± 2.2
298.15 K, m1 = 0.3076	1017.25 ± 2	1530.5 ± 2.2
303.15 K, m1 = 0.0116	996.433 ± 2	1510.5 ± 2.2
303.15 K, m1 = 0.0175	996.835 ± 2	1511.2 ± 2.2
303.15 K, m1 = 0.0352	998.02 ± 2	1513 ± 2.2
303.15 K, m1 = 0.0453	998.716 ± 2	1514.1 ± 2.2
303.15 K, m1 = 0.0579	999.538 ± 2	1515.4 ± 2.2
303.15 K, m1 = 0.1204	1003.7 ± 2	1521.9 ± 2.2
303.15 K, m1 = 0.18	1007.58 ± 2	1528 ± 2.2
303.15 K, m1 = 0.2369	1011.19 ± 2	1533.6 ± 2.2
303.15 K, m1 = 0.3076	1015.64 ± 2	1540.6 ± 2.2
308.15 K, m1 = 0.0116	994.811 ± 2	1521 ± 2.2
308.15 K, m1 = 0.0175	995.206 ± 2	1521.7 ± 2.2
308.15 K, m1 = 0.0352	996.379 ± 2	1523.4 ± 2.2
308.15 K, m1 = 0.0453	997.071 ± 2	1524.4 ± 2.2
308.15 K, m1 = 0.0579	997.885 ± 2	1525.7 ± 2.2
308.15 K, m1 = 0.1204	1002 ± 2	1531.8 ± 2.2
308.15 K, m1 = 0.18	1005.85 ± 2	1537.4 ± 2.2
308.15 K, m1 = 0.2369	1009.43 ± 2	1542.7 ± 2.2
308.15 K, m1 = 0.3076	1013.83 ± 2	1549.1 ± 2.2
313.15 K, m1 = 0.0116	992.986 ± 2	1530 ± 2.1
313.15 K, m1 = 0.0175	993.379 ± 2	1530.7 ± 2.1
313.15 K, m1 = 0.0352	994.542 ± 2	1532.2 ± 2.1
313.15 K, m1 = 0.0453	995.228 ± 2	1533.2 ± 2.1
313.15 K, m1 = 0.0579	996.034 ± 2	1534.4 ± 2.1
313.15 K, m1 = 0.1204	1000.12 ± 2	1540.1 ± 2.1
313.15 K, m1 = 0.18	1003.93 ± 2	1545.4 ± 2.1
313.15 K, m1 = 0.2369	1007.47 ± 2	1550.3 ± 2.1
313.15 K, m1 = 0.3076	1011.84 ± 2	1556.3 ± 2.2

COC(=O)CC(=O)[O-].[K+] [potassium 3-methoxy-3-oxopropanoate] + O
Settings	mass density [kg/m3]	speed of sound [m/s]
288.15 K, m1 = 0.0128	1000.03 ± 0.14	1468.1 ± 2.2
288.15 K, m1 = 0.0148	1000.18 ± 0.13	1468.3 ± 2.2
288.15 K, m1 = 0.0189	1000.47 ± 0.13	1468.8 ± 2.2
288.15 K, m1 = 0.0253	1000.94 ± 0.13	1469.6 ± 2.2
288.15 K, m1 = 0.0316	1001.39 ± 0.13	1470.3 ± 2.2
288.15 K, m1 = 0.0444	1002.3 ± 0.13	1471.8 ± 2.2
288.15 K, m1 = 0.0512	1002.81 ± 0.13	1472.4 ± 2.2
288.15 K, m1 = 0.0637	1003.7 ± 0.13	1474 ± 2.2
288.15 K, m1 = 0.0836	1005.11 ± 0.14	1476 ± 2.2
288.15 K, m1 = 0.1286	1008.32 ± 0.14	1481.1 ± 2.2
288.15 K, m1 = 0.1868	1012.39 ± 0.14	1487.4 ± 2.2
288.15 K, m1 = 0.2644	1017.68 ± 0.14	1495.4 ± 2.2
288.15 K, m1 = 0.3285	1022.02 ± 0.14	1502.2 ± 2.2
288.15 K, m1 = 0.3591	1024 ± 0.14	1505 ± 2.2
293.15 K, m1 = 0.0128	999.122 ± 0.17	1484 ± 2.2
293.15 K, m1 = 0.0148	999.272 ± 0.14	1484.2 ± 2.2
293.15 K, m1 = 0.0189	999.553 ± 0.14	1484.7 ± 2.2
293.15 K, m1 = 0.0253	1000.02 ± 0.14	1485.4 ± 2.2
293.15 K, m1 = 0.0316	1000.47 ± 0.14	1486.1 ± 2.2
293.15 K, m1 = 0.0444	1001.37 ± 0.13	1487.4 ± 2.2
293.15 K, m1 = 0.0512	1001.87 ± 0.14	1488.2 ± 2.2
293.15 K, m1 = 0.0637	1002.74 ± 0.14	1489.5 ± 2.2
293.15 K, m1 = 0.0836	1004.14 ± 0.14	1491.5 ± 2.2
293.15 K, m1 = 0.1286	1007.31 ± 0.14	1496.2 ± 2.2
293.15 K, m1 = 0.1868	1011.34 ± 0.14	1502 ± 2.2
293.15 K, m1 = 0.2644	1016.57 ± 0.14	1509.6 ± 2.2
293.15 K, m1 = 0.3285	1020.84 ± 0.14	1516.1 ± 2.2
293.15 K, m1 = 0.3591	1022.81 ± 0.14	1518.6 ± 2.2
298.15 K, m1 = 0.0128	997.951 ± 0.16	1498.1 ± 2.2
298.15 K, m1 = 0.0148	998.099 ± 0.14	1498.4 ± 2.2
298.15 K, m1 = 0.0189	998.377 ± 0.14	1498.8 ± 2.2
298.15 K, m1 = 0.0253	998.84 ± 0.14	1499.4 ± 2.2
298.15 K, m1 = 0.0316	999.281 ± 0.14	1500.1 ± 2.2
298.15 K, m1 = 0.0444	1000.17 ± 0.14	1501.3 ± 2.2
298.15 K, m1 = 0.0512	1000.67 ± 0.14	1502 ± 2.2
298.15 K, m1 = 0.0637	1001.53 ± 0.14	1503.3 ± 2.2
298.15 K, m1 = 0.0836	1002.91 ± 0.14	1505.1 ± 2.2
298.15 K, m1 = 0.1286	1006.05 ± 0.14	1509.5 ± 2.2
298.15 K, m1 = 0.1868	1010.04 ± 0.14	1514.9 ± 2.2
298.15 K, m1 = 0.2644	1015.21 ± 0.14	1522.1 ± 2.2
298.15 K, m1 = 0.3285	1019.45 ± 0.14	1528 ± 2.2
298.15 K, m1 = 0.3591	1021.39 ± 0.14	1530.5 ± 2.2
303.15 K, m1 = 0.0128	996.543 ± 0.17	1510.4 ± 2.2
303.15 K, m1 = 0.0148	996.691 ± 0.14	1510.6 ± 2.2
303.15 K, m1 = 0.0189	996.967 ± 0.14	1511 ± 2.2
303.15 K, m1 = 0.0253	997.423 ± 0.14	1511.6 ± 2.2
303.15 K, m1 = 0.0316	997.862 ± 0.14	1512.2 ± 2.2
303.15 K, m1 = 0.0444	998.743 ± 0.14	1513.3 ± 2.2
303.15 K, m1 = 0.0512	999.236 ± 0.14	1514 ± 2.2
303.15 K, m1 = 0.0637	1000.1 ± 0.14	1515.2 ± 2.2
303.15 K, m1 = 0.0836	1001.46 ± 0.14	1517 ± 2.2
303.15 K, m1 = 0.1286	1004.57 ± 0.14	1521.1 ± 2.2
303.15 K, m1 = 0.1868	1008.52 ± 0.14	1526.2 ± 2.2
303.15 K, m1 = 0.2644	1013.64 ± 0.14	1532.9 ± 2.2
303.15 K, m1 = 0.3285	1017.84 ± 0.15	1538.5 ± 2.2
303.15 K, m1 = 0.3591	1019.76 ± 0.14	1540.8 ± 2.2
308.15 K, m1 = 0.0128	994.92 ± 0.17	1520.9 ± 2.2
308.15 K, m1 = 0.0148	995.066 ± 0.15	1521.2 ± 2.2
308.15 K, m1 = 0.0189	995.341 ± 0.15	1521.5 ± 2.2
308.15 K, m1 = 0.0253	995.793 ± 0.14	1522.1 ± 2.2
308.15 K, m1 = 0.0316	996.226 ± 0.14	1522.7 ± 2.2
308.15 K, m1 = 0.0444	997.101 ± 0.14	1523.7 ± 2.2
308.15 K, m1 = 0.0512	997.589 ± 0.15	1524.4 ± 2.2
308.15 K, m1 = 0.0637	998.449 ± 0.14	1525.5 ± 2.2
308.15 K, m1 = 0.0836	999.794 ± 0.14	1527.1 ± 2.2
308.15 K, m1 = 0.1286	1002.88 ± 0.15	1531 ± 2.2
308.15 K, m1 = 0.1868	1006.79 ± 0.15	1535.8 ± 2.2
308.15 K, m1 = 0.2644	1011.88 ± 0.15	1542.1 ± 2.2
308.15 K, m1 = 0.3285	1016.04 ± 0.15	1547.4 ± 2.2
308.15 K, m1 = 0.3591	1017.95 ± 0.15	1549.5 ± 2.2
313.15 K, m1 = 0.0128	993.096 ± 0.15	1530 ± 2.1
313.15 K, m1 = 0.0148	993.243 ± 0.15	1530.2 ± 2.1
313.15 K, m1 = 0.0189	993.515 ± 0.15	1530.5 ± 2.1
313.15 K, m1 = 0.0253	993.962 ± 0.15	1531.1 ± 2.1
313.15 K, m1 = 0.0316	994.391 ± 0.15	1531.6 ± 2.1
313.15 K, m1 = 0.0444	995.26 ± 0.15	1532.6 ± 2.1
313.15 K, m1 = 0.0512	995.745 ± 0.15	1533.2 ± 2.1
313.15 K, m1 = 0.0637	996.599 ± 0.15	1534.3 ± 2.1
313.15 K, m1 = 0.0836	997.933 ± 0.15	1535.8 ± 2.1
313.15 K, m1 = 0.1286	1001 ± 0.15	1539.5 ± 2.1
313.15 K, m1 = 0.1868	1004.88 ± 0.15	1543.9 ± 2.1
313.15 K, m1 = 0.2644	1009.93 ± 0.15	1549.9 ± 2.2
313.15 K, m1 = 0.3285	1014.06 ± 0.15	1554.9 ± 2.2
313.15 K, m1 = 0.3591	1015.96 ± 0.15	1556.8 ± 2.2

Reference: the NIST ThermoML archive (doi:10.1016/j.jct.2011.11.014)
